Measured values published in US20230365592A1 (Agios Pharmaceuticals, Inc., priority 2022, published 2023).

target: T1, human PAH with the R408W mutation (Homo sapiens, UniProt P00439, R408W); assay: Cell Based Phenylalanine Flux Assay; conditions: A375 cells expressing R408W PAH; 24 hrs with compound, then 20 µM sepiapterin and 800 µM 13C9,15N-Phenylalanine for 4 hours; 13C-Tyrosine by LC-MS; average where tested multiple times; read-out: AC50;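 note: after compound treatment, cells received sepiapterin plus isotope-labelled Phenylalanine for 4 hours, then labelled Tyrosine in the medium was quantified, 10-point 2-fold dilution series run in duplicate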
T1 construct: expressed in transfected cells
T1 sequence (P00439 1-452 R408W): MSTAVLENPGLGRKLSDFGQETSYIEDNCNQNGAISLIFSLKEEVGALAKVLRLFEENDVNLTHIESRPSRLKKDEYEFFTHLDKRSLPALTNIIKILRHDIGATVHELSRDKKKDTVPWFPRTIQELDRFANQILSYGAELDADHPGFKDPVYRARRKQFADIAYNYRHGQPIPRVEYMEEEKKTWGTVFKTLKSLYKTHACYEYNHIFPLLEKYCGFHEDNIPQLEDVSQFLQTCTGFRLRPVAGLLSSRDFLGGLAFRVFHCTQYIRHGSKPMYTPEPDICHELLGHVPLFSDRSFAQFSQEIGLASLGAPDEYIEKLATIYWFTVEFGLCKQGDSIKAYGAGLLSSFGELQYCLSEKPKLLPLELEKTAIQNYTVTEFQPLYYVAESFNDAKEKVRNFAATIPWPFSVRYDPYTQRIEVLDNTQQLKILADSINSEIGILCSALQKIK

| SMILES | AC50 |
| --- | --- |
| O=C(c1nnc(-c2ccccn2)o1)N1CCc2[nH]cnc2C1c1cc2cc(F)ccn2n1 (stereo not shown) | > 5000 nM |
| O=C(c1nnc(-c2cnn(C(F)(F)F)c2)o1)N1CCc2[nH]cnc2C1c1cc2c(OC(F)(F)F)cccn2n1 (stereo not shown) | 1000 to 5000 nM |
| Cc1c(C2c3nc[nH]c3CCN2C(=O)c2nnc(C3CC3)o2)nn2ccccc12 (stereo not shown) | 1000 to 5000 nM |
| Cc1cccn2nc(C3c4nc[nH]c4CCN3C(=O)c3cnc(-c4ncccn4)o3)cc12 (stereo not shown) | 1000 to 5000 nM |
| N#Cc1ncoc1C(=O)N1CCc2[nH]cnc2[C@H]1c1nn2ccccc2c1Br (single isomer, unassigned) | 1000 to 5000 nM |
| Cn1nc(C(F)F)nc1C(=O)N1CCc2[nH]cnc2C1c1cc2cc(F)ccn2n1 (stereo not shown) | 1000 to 5000 nM |
| COCCNc1nnc(C(=O)N2CCc3[nH]cnc3C2c2cc3ccccn3n2)o1 (stereo not shown) | > 5000 nM |
| c1cnc(-c2nnc(N3CCc4[nH]cnc4C3c3cc4ccccn4n3)o2)nc1 (stereo not shown) | 1000 to 5000 nM |
| COc1ccc2c(C(=O)N3CCc4[nH]cnc4C3c3cc4cccc(C(F)(F)F)n4n3)cnn2c1 (stereo not shown) | 1000 to 5000 nM |

same assay, conditions: A375 cells expressing human PAH R408W; 24 hrs compound incubation; 13C-Tyrosine by LC-MS; average where tested multiple times; read-out: AC50

| SMILES | AC50 |
| --- | --- |
| FC(F)(F)c1cccn2nc([C@H]3c4nc[nH]c4CCN3c3nnc(-c4cnccn4)o3)cc12 [Example 2511, (R)-2-(pyrazin-2-yl)-5-(4-(4-(trifluoromethyl)pyrazolo[1,5-a]pyridin-2-yl)-1,4,6,7-tetrahydro-5H-imidazo[4,5-c]pyridin-5-yl)-1,3,4-oxadiazole] | > 5000 nM |
| Cn1ccc(-c2nnc(C(=O)N3CCc4[nH]cnc4[C@H]3c3cc4c(Br)cccn4n3)o2)n1 [Example 1889, (S)-(4-(4-bromopyrazolo[1,5-a]pyridin-2-yl)-1,4,6,7-tetrahydro-5H-imidazo[4,5-c]pyridin-5-yl)(5-(1-methyl-1H-pyrazol-3-yl)-1,3,4-oxadiazol-2-yl)methanone] | < 500 nM |
| CC(C)(F)c1nnc(C(=O)N2CCc3[nH]cnc3[C@@H]2c2cc3ccc(C(F)(F)F)cn3n2)o1 [Example 2421, (R)-(5-(2-fluoropropan-2-yl)-1,3,4-oxadiazol-2-yl)(4-(6-(trifluoromethyl)pyrazolo[1,5-a]pyridin-2-yl)-6,7-dihydro-1H-imidazo[4,5-c]pyridin-5(4H)-yl)methanone] | 1000 to 5000 nM |
| Fc1cccc(-c2nnc(N3CCc4[nH]cnc4[C@H]3c3cc4c(C(F)(F)F)cccn4n3)o2)n1 [Example 2363, (S)-2-(6-fluoropyridin-2-yl)-5-(4-(4-(trifluoromethyl)pyrazolo[1,5-a]pyridin-2-yl)-1,4,6,7-tetrahydro-5H-imidazo[4,5-c]pyridin-5-yl)-1,3,4-oxadiazole] | 500 to 1000 nM |
| CC(C)c1cccn2nc([C@H]3c4nc[nH]c4CCN3C(=O)c3nnc(-c4cnn(C)c4)o3)cc12 [Example 1887, (R)-(4-(4-isopropylpyrazolo[1,5-a]pyridin-2-yl)-1,4,6,7-tetrahydro-5H-imidazo[4,5-c]pyridin-5-yl)(5-(1-methyl-1H-pyrazol-4-yl)-1,3,4-oxadiazol-2-yl)methanone] | > 5000 nM |
| FC(F)(F)Oc1cccn2nc([C@H]3c4nc[nH]c4CCN3c3ncccn3)cc12 [Example 2271, (R)-5-(pyrimidin-2-yl)-4-(4-(trifluoromethoxy)pyrazolo[1,5-a]pyridin-2-yl)-4,5,6,7-tetrahydro-1H-imidazo[4,5-c]pyridine] | > 5000 nM |
| FC(F)Oc1cccn2nc([C@H]3c4nc[nH]c4CCN3c3ncccn3)cc12 [Example 2255, (R)-4-(4-(difluoromethoxy)pyrazolo[1,5-a]pyridin-2-yl)-5-(pyrimidin-2-yl)-4,5,6,7-tetrahydro-1H-imidazo[4,5-c]pyridine] | 1000 to 5000 nM |

same assay, conditions: A375 cells expressing human R408W PAH; 24 hrs compound incubation; 13C-Tyrosine by LC-MS; average where tested multiple times; read-out: AC50

| SMILES | AC50 |
| --- | --- |
| O=C(c1oc(C2(O)CC2)nc1C(F)F)N1CCc2[nH]cnc2[C@H]1c1cc2ccccn2n1 [Example 994, (S)-(4-(difluoromethyl)-2-(1-hydroxycyclopropyl)oxazol-5-yl)(4-(pyrazolo[1,5-a]pyridin-2-yl)-6,7-dihydro-1H-imidazo[4,5-c]pyridin-5(4H)-yl)methanone] | < 500 nM |
| Cc1cccn2nc([C@H]3c4nc[nH]c4CCN3C(=O)c3nnc(-c4cnn(C(F)(F)F)c4)o3)cc12 [Example 1473, (R)-(4-(4-methylpyrazolo[1,5-a]pyridin-2-yl)-6,7-dihydro-1H-imidazo[4,5-c]pyridin-5(4H)-yl)(5-(1-(trifluoromethyl)-1H-pyrazol-4-yl)-1,3,4-oxadiazol-2-yl)methanone] | 1000 to 5000 nM |
| Cc1cccn2nc([C@H]3c4nc[nH]c4CCN3C(=O)c3nnc(-c4cnn(C)c4)o3)cc12 [Example 749, (R)-(5-(1-methyl-1H-pyrazol-4-yl)-1,3,4-oxadiazol-2-yl)(4-(4-methylpyrazolo[1,5-a]pyridin-2-yl)-6,7-dihydro-1H-imidazo[4,5-c]pyridin-5(4H)-yl)methanone] | > 5000 nM |
| O=C(c1nnc(-c2ccc(F)c(F)c2)o1)N1CCc2[nH]cnc2[C@@H]1c1cc2ccccn2n1 [Example 649, (R)-(5-(3,4-difluorophenyl)-1,3,4-oxadiazol-2-yl)(4-(pyrazolo[1,5-a]pyridin-2-yl)-6,7-dihydro-1H-imidazo[4,5-c]pyridin-5(4H)-yl)methanone] | > 5000 nM |
| Cn1nc(Cl)nc1C(=O)N1CCc2[nH]cnc2[C@@H]1c1cc2c(Cl)cccn2n1 [Example 1055, (R)-(3-chloro-1-methyl-1H-1,2,4-triazol-5-yl)(4-(4-chloropyrazolo[1,5-a]pyridin-2-yl)-6,7-dihydro-1H-imidazo[4,5-c]pyridin-5(4H)-yl)methanone] | 1000 to 5000 nM |
| Cc1ncoc1C(=O)N1CCc2[nH]cnc2[C@H]1c1cc2cccc(Cl)n2n1 [Example 1174, (S)-(4-(7-chloropyrazolo[1,5-a]pyridin-2-yl)-6,7-dihydro-1H-imidazo[4,5-c]pyridin-5(4H)-yl)(4-methyloxazol-5-yl)methanone] | 500 to 1000 nM |
| O=C(CC1CC1)N1CCc2[nH]cnc2[C@@H]1c1cc2ccccn2n1 [Example 615, (R)-2-cyclopropyl-1-(4-(pyrazolo[1,5-a]pyridin-2-yl)-6,7-dihydro-1H-imidazo[4,5-c]pyridin-5(4H)-yl)ethanone] | 1000 to 5000 nM |
| COc1cccn2nc([C@@H]3c4nc[nH]c4CCN3C(=O)c3nnc(-c4ccn(C(F)F)n4)o3)cc12 [Example 1723, (S)-(5-(1-(difluoromethyl)-1H-pyrazol-3-yl)-1,3,4-oxadiazol-2-yl)(4-(4-methoxypyrazolo[1,5-a]pyridin-2-yl)-6,7-dihydro-1H-imidazo[4,5-c]pyridin-5(4H)-yl)methanone] | 500 to 1000 nM |
| Cc1c(-c2nnc(C(=O)N3CCc4[nH]cnc4[C@H]3c3cc4c(F)cccn4n3)o2)cnn1C [Example 954, (S)-(5-(1,5-dimethyl-1H-pyrazol-4-yl)-1,3,4-oxadiazol-2-yl)(4-(4-fluoropyrazolo[1,5-a]pyridin-2-yl)-6,7-dihydro-1H-imidazo[4,5-c]pyridin-5(4H)-yl)methanone] | < 500 nM |
| O=C(c1oc(C2(O)CC2)nc1C(F)F)N1CCc2[nH]cnc2[C@@H]1c1cc2cccc(Cl)n2n1 [Example 1237, (R)-(4-(7-chloropyrazolo[1,5-a]pyridin-2-yl)-6,7-dihydro-1H-imidazo[4,5-c]pyridin-5(4H)-yl)(4-(difluoromethyl)-2-(1-hydroxycyclopropyl)oxazol-5-yl)methanone] | 1000 to 5000 nM |
| Cc1nn(C)cc1-c1nnc(C(=O)N2CCc3[nH]cnc3[C@@H]2c2cc3cccc(C(F)F)n3n2)o1 [Example 1583, (R)-(4-(7-(difluoromethyl)pyrazolo[1,5-a]pyridin-2-yl)-6,7-dihydro-1H-imidazo[4,5-c]pyridin-5(4H)-yl)(5-(1,3-dimethyl-1H-pyrazol-4-yl)-1,3,4-oxadiazol-2-yl)methanone] | > 5000 nM |
| CC(C)(O)c1nc(Br)c(C(=O)N2CCc3[nH]cnc3[C@@H]2c2cc3c(Cl)cccn3n2)o1 [Example 723, (R)-(4-bromo-2-(2-hydroxypropan-2-yl)oxazol-5-yl)(4-(4-chloropyrazolo[1,5-a]pyridin-2-yl)-6,7-dihydro-1H-imidazo[4,5-c]pyridin-5(4H)-yl)methanone] | 1000 to 5000 nM |
| Cc1cccn2nc([C@@H]3c4nc[nH]c4CCN3C(=O)c3nnc(C(C)(C)F)o3)cc12 [Example 922, (S)-(5-(2-fluoropropan-2-yl)-1,3,4-oxadiazol-2-yl)(4-(4-methylpyrazolo[1,5-a]pyridin-2-yl)-6,7-dihydro-1H-imidazo[4,5-c]pyridin-5(4H)-yl)methanone] | < 500 nM |
| O=C(c1cnn2cc(C3CC3)ccc12)N1CCc2[nH]cnc2[C@H]1c1cc2c(C(F)(F)F)cccn2n1 [Example 1716, (S)-(6-cyclopropylpyrazolo[1,5-a]pyridin-3-yl)(4-(4-(trifluoromethyl)pyrazolo[1,5-a]pyridin-2-yl)-6,7-dihydro-1H-imidazo[4,5-c]pyridin-5(4H)-yl)methanone] | < 500 nM |
| Cc1cccn2nc([C@@H]3c4nc[nH]c4CCN3C(=O)c3cnn4cc(-c5cnn(C)c5)ccc34)cc12 [Example 1630, (S)-(6-(1-methyl-1H-pyrazol-4-yl)pyrazolo[1,5-a]pyridin-3-yl)(4-(4-methylpyrazolo[1,5-a]pyridin-2-yl)-6,7-dihydro-1H-imidazo[4,5-c]pyridin-5(4H)-yl)methanone] | 500 to 1000 nM |
